Results taken from patent US20190271885A1, “OPTICAL FILM AND METHOD FOR PRODUCING THE SAME, POLARIZING PLATE, AND IMAGE DISPLAY DEVICE” (FUJIFILM Corporation, priority 2016, published 2019).

Experiment: Evaluation of wet heat resistance of optical film (change of in-plane retardation Re)
Type: physicochemical
Details: HB(C6F5)4 used instead of the additive B-1 of Example 1
Protocol: The optical film manufactured in each of Examples and Comparative Examples was left to stand in an environment at a temperature of 65° C. and a humidity of 90% for 500 hours, and the in-plane retardation Re of the optical film before being left to stand in a wet heat environment (initial Re1) and the in-plane retardation Re of the optical film after being left to stand in a wet heat environment (Re1 after standing) were compared to each other to calculate a Re change rate 1.
Furthermore, the Re change rate 1 is calculated by the following equation.
Re change rate 1(%)={(Initial Re1−Re1 after standing)/Initial Re1}×100
Furthermore, a comparative optical film was manufactured without use of an additive of each of Examples and Comparative Examples, and according to the same procedure as above, the in-plane retardation Re of the comparative optical film before being left to stand in a wet heat environment (initial Re2) and the in-plane retardation Re of the comparative optical film after being left to stand in a wet heat environment (Re2 after standing) were compared to each other to calculate a Re change rate 2.
Furthermore, the Re change rate 2 is calculated by the following equation. […]
A difference between the Re change rate 2 and the Re change rate 1 (Re change rate 2-Re change rate 1) was evaluated according to the following standard. […]

Structure (SMILES): Fc1c(F)c(F)c([B-](c2c(F)c(F)c(F)c(F)c2F)(c2c(F)c(F)c(F)c(F)c2F)c2c(F)c(F)c(F)c(F)c2F)c(F)c1F.[H+] [HB(C6F5)4]
- Wet heat resistance (in words): the same extent of effects as in Example 1
